From patent publication US8017350B2, “Glimepiride- and insulin-induced glycosylphosphatidylinositol-specific phospholipase C regulation” (Sanofi-Aventis Deutschland GmbH, priority 2004, dated 2011)

Experiments:
[1] = system: glucose transport, rat adipocytes; assay: Glucose transport in rat adipocytes; format: cell-based; conditions: GPI-2350 50 μM
Description: Glucose transport was determined as described in “Müller, G. et al., (1994) J. Cell Biol. 126: 1267-1276” by incubation of 10,000-20,000 washed adipocytes with 2-deoxy-D[2,6-^3H]glucose at 50 μM final conc. (0.33 μCi/ml) in 50-μl portions for 20 min at 37° C. in the absence or presence of 20 μM cytochalasin B.
Subsequently, we studied whether the differential effects of GPI-PLC inhibition on IRS-1 tyrosine phosphorylation in response to insulin and glimepiride is reflected in their metabolic activity in insulin target cells. For this, isolated rat adipocytes were pretreated with GPI-2350 prior to challenge with either stimulus, and then assayed for glucose transport and isoproterenol-induced lipolysis (FIG. 8). […] These differential effects of GPI-PLC inhibition were confirmed by analysis of the effect of GPI-2350 on the inhibition of isoproterenol-induced lipolysis by glimepiride and insulin when measured as release of NBD-FA instead of glycerol from rat adipocytes prelabeled with this fluorescent fatty acid derivative (FIG. 9).
Table 3: Isolated rat adipocytes were incubated in the presence of methyl-β-cyclodextrin (m-β-CD, 10 mM, 50 min), CBDP (300 μM, electroporation, followed by washing and subsequent incubation for 30 min), PIG41 (10 μM, 15 min), sodium orthovanadate (1 mM, 15 min), trypsin (10 μg/ml, 15 min followed by treatment with 0.5 M NaCl and subsequent washing) and N-ethylmaleimide (1 mM, 5 min followed by addition of DTT). After addition of GPI-2350 (50 μM final conc.) to one half of the adipocyte suspension and further incubation (60 min, 37° C.), portions of the cells were assayed for 5′-Nuc activity in the isolated IcDIGs. The increase in 5′-Nuc during the basal incubation was set at 100 arb. units. Other portions of the cells (after 15 min incubation) were assayed for glucose transport which was set at 100 arb. units for the basal incubation. Means+SD of at least 3 independent cell incubations with activity measurements in triplicate each are given.
FIG. 8: Effect of GPI-2350 on the glimepiride/insulin-induced metabolic activity. Isolated rat adipocytes were treated (5 min, 37° C.) without or with GPI-2350 (Panel A, 50 μM; Panel B, increasing conc.; Panel C, 5 μM, 50 μM) and then incubated (15 min, 37° C.) in the absence or presence of insulin (Ins, 10 nM) or glimepiride (Gli, 20 μM or increasing conc.) as indicated. The adipocytes were then assayed for glucose transport and isoproterenol-induced lipolysis. The activity is given relative to the absence of GPI-2350 in the control reaction (Panels A, basal) or in the insulin- and glimepiride-stimulated state (Panels B and C, set at 100). Means+SD of at least 5 independent cell incubations with activity measurements in triplicate each are given.

Stability of compound 3 = format: physicochemical; conditions: 4° C.
Description: As starting material, racemic 1,4,5,6-tetra-O-benzyl-myo-inositol (hereinafter: compound 1) was prepared by a procedure as disclosed in “Zhai, H.-X. et al. (1995) Tetrahedron Lett. 36: 7403-7406”. Compound 1 was then phosphorylated with dodecylphosphonic dichloride in the presence of triethylamine and dimethyl-aminopyridine to yield tetra-O-benzyl-myo-inositol-1,2-cyclo-dodecylphosphonic acid (hereinafter: compound 2). By catalytic hydrogenation with 10% Pd on charcoal, compound 2 was debenzylated to myo-inositol-1,2-cyclo-dodecylphosphonic acid (hereinafter: compound 3 or GPI-2350) as a mixture of diastereomers. For synthesis of compound 2 (FIG. 1), 1 g (1.8 mmol) of compound 1 was dissolved in 60 ml of methylene chloride and 1 ml of triethylamine; 200 mg dimethyl-aminopyridine and 1 g ([…]) of dodecylphosphonic dichloride were added. This reaction solution was allowed to stand (45 min, room temperature). Then 50 ml of ethyl acetate were added and the mixture was filtered on silica gel. After concentration of the solvent, the residue was purified by flash chromatography (n-heptane/ethyl acetate, 1/1, by vol.). Yield of compound 2: 580 mg (43%) of a white amorphous solid. TLC: n-heptane/ethyl acetate (1/1, by vol.), Rf=0.7. MS: (M+Li)^+=761.4, calculated […], M=754.9. […] MS: (M+Li)^+=401.2, calculated C18H35O7P, M=394.4.

With `CCCCCCCCCCCCP1(=O)O[C@@H]2[C@H](O)[C@@H](O)[C@H](O)[C@@H](O)[C@@H]2O1` (some centres unmarked) [GPI-2350, myo-inositol-1,2-cyclo-dodecylphosphonic acid] the “glimepiride-stimulated glucose transport with GPI-2350” value [1] was “to lower than control values” and the “stability as dried amorphous solid” value (Stability of compound 3) was “as dried amorphous solid for years at 4 °C”.
